In US12084458B2, “Substituted pyridines, pyridazines, and pyrimidines as TYK2 inhibitors” (Sudo Biosciences Limited, priority 2021, dated 2024):
Read-outs that look alike come from different tables or passages of the source.

Key:
Type in all cases: cell-based
[1] = test system: HEK-Blue IL-2 reporter cells (IL-2-stimulated STAT5 SEAP reporter); assay: HEK-Blue IL-2 SEAP reporter assay for determining selectivity; settings: 4 ng/mL human recombinant IL-2
Experimental: (§1) Example B-3: HEK-Blue™ IL-2 and IFNγ Reporter Assays for Determining Selectivity
(§2) HEK-Blue™ IL-2 and IFNγ reporter cells with a stably-integrated cytokine receptor and STAT5 or STAT1 express STAT-inducible secreted embryonic alkaline phosphatase (SEAP) reporter gene upon cytokine stimulation. These cells were plated in DMEM (Gibco) containing 10% heat-inactivated FBS (Gibco) and 100 U/mL PenStrep (Gibco) at 37° C. under 5% CO2 conditions for 20-22 hours. The cells were then pretreated with serially diluted test compounds for 60 min prior to stimulation with either 4 ng/mL human recombinant IL-2 (Miltenyl Biotech) or 50 ng/mL human recombinant IFNγ (InvivoGen) for 24 hours. SEAP induction was measured using the QUANTI-Blue™ Solution (InvivoGen) according to the manufacturer's instructions.

[2] = test system: HEK-Blue IFNγ reporter cells (IFNγ-stimulated STAT1 SEAP reporter); assay: HEK-Blue IFNγ SEAP reporter assay for determining selectivity; design: IFN-γ (SEAP selectivity, IC50): scale not given here; settings: 50 ng/mL human recombinant IFNγ; for IC50: read-out: IFN-γ (SEAP selectivity, IC50)
Experimental: as §1, §2

[3] = test system: HEK-Blue IL-23 cells (IL-23-stimulated STAT3 SEAP reporter; TYK2 JH2); assay: HEK-Blue IL-23 SEAP reporter assay for profiling TYK2 pseudokinase (JH2) inhibition; settings: 10 ng/mL human recombinant IL-23, SEAP reporter, read-out: IL23 (TYK2 inhibitory activity, IC50)
Experimental: (§3) Example B-1: HEK-Blue™ IL-23 and IFNα/β Reporter Assays for Profiling TYK2 Pseudokinase (JH2) Inhibition
(§4) HEK-Blue™ IL-23 and IFNα/β cells with a stably-integrated cytokine receptor and STAT3 or STAT1 express STAT-inducible secreted embryonic alkaline phosphatase (SEAP) reporter gene upon cytokine stimulation. These cells are plated in DMEM (Gibco) containing 10% heat-inactivated FBS (Gibco) and 100 U/mL PenStrep (Gibco) at 37° C. under 5% CO2 conditions for 20-22 hours. The cells are then pretreated with serially diluted test compounds for 60 min prior to stimulation with either 10 ng/mL human recombinant IL-23 (Miltenyl Biotech) or 1 ng/mL human recombinant IFNα (InvivoGen) for 22-24 hours for IL-23 or 16-18 h for IFNα. SEAP induction is measured using the QUANTI Blue™ Solution (InvivoGen) according to the manufacturer's instructions.

[4] = test system: HEK-Blue IFNα/β cells (IFNα-stimulated STAT1 SEAP reporter; TYK2 JH2); assay: HEK-Blue IFNα/β SEAP reporter assay for profiling TYK2 pseudokinase (JH2) inhibition; settings: Homo sapiens, HEK-Blue, 1 ng/mL human recombinant IFNα, read-out: IFNα (TYK2 inhibitory activity, IC50)
Experimental: as §3, §4

Row | SMILES | IC50 [1] [nM] | IC50 ([2]; Homo sapiens, HEK-Blue) [nM] | IC50 [3] [nM] | IC50 [4] [nM] | IFN-γ (SEAP selectivity, IC50) [2] | IC50 [2] [nM]
1 | [2H]C([2H])([2H])NC(=O)c1nnc(NC(=O)C2CC2)cc1Nc1cccc2c1N(C)C([2H])([2H])c1nc(C)nn1-2 [Compound 35, 6-(cyclopropanecarboxamido)-4-((2,5-dimethyl-4,5-dihydro-[1,2,4]triazolo[1,5-a]quinoxalin-6-yl-4,4-d2)amino)-N-(methyl-d3)pyridazine-3-carboxamide] | > 1000 | 30 to 300 | < 30 | < 30 |  | 
2 | [2H]C([2H])([2H])NC(=O)c1nnc(NC(=O)C2CC2)cc1Nc1cccc2c1N(C)C1(CC1)c1nc(C)nn1-2 [Compound 39, 6-(cyclopropanecarboxamido)-4-((2′,5′-dimethyl-5′H-spiro[cyclopropane-1,4′-[1,2,4]triazolo[1,5-a]quinoxalin]-6′-yl)amino)-N-(methyl-d3)pyridazine-3-carboxamide] | > 1000 | 300 to 1000 | < 30 | < 30 |  | 
3 | [2H]C([2H])([2H])NC(=O)c1cnc(NC(=O)C2CC2)cc1Nc1cc(F)cc2c1N(C)[C@@H](C)c1nc(C)nn1-2 (single isomer, unassigned) [Compound 110] | > 1000 |  | < 30 | 30 to 300 | C/D | 
4 | [2H]C([2H])([2H])NC(=O)c1cnc(NC(=O)NC)cc1Nc1cc(F)cc2c1N(C)Cc1nc(C)nn1-2 [Compound 101, 4-((8-fluoro-2,5-dimethyl-4,5-dihydro-[1,2,4]triazolo[1,5-a]quinoxalin-6-yl)amino)-N-(methyl-d3)-6-(3-methylureido)nicotinamide] | > 1000 | > 1000 | 30 to 300 | 300 to 1000 |  | 
5 | [2H]C([2H])([2H])NC(=O)c1nnc(NC(=O)C2CC2)cc1Nc1cc(F)cc2c1N(C)Cc1nc(C)nn1-2 [Compound 90, 6-(cyclopropanecarboxamido)-4-((8-fluoro-2,5-dimethyl-4,5-dihydro-[1,2,4]triazolo[1,5-a]quinoxalin-6-yl)amino)-N-(methyl-d3)pyridazine-3-carboxamide] | > 1000 | 30 to 300 | < 30 | 30 to 300 |  | 
6 | [2H]C([2H])([2H])NC(=O)c1cnc(Nc2cc(C)nc(C)n2)cc1Nc1cccc2c1N(C)Cc1nc(C)nn1-2 [Compound 26, 4-((2,5-dimethyl-4,5-dihydro-[1,2,4]triazolo[1,5-a]quinoxalin-6-yl)amino)-6-((2,6-dimethylpyrimidin-4-yl)amino)-N-(methyl-d3)nicotinamide] | 300 to 1000 | 30 to 300 | < 30 | < 30 |  | 
7 | [2H]C([2H])([2H])NC(=O)c1cnc(NC(=O)NC)cc1Nc1cccc2c1N(C)[C@@H](C)c1nn(C)nc1-2 (single isomer, unassigned) [Compound 55] | > 1000 | > 1000 | < 30 | < 30 |  | 
8 | [2H]C([2H])([2H])NC(=O)c1cnc(NC(=O)C2CC2)cc1Nc1cccc2c1N(C)C1(CC1)c1nc(C)nn1-2 [Compound 40, 6-(cyclopropanecarboxamido)-4-((2′,5′-dimethyl-5′H-spiro[cyclopropane-1,4′-[1,2,4]triazolo[1,5-a]quinoxalin]-6′-yl)amino)-N-(methyl-d3)nicotinamide] | > 1000 | > 1000 | < 30 | < 30 |  | 
9 | [2H]C([2H])([2H])NC(=O)c1nnc(NC(=O)C2CC2)cc1Nc1nccc2c1N(C)[C@H](C)c1nn(C)nc1-2 (single isomer, unassigned) [Compound 95] | > 1000 | > 1000 | < 30 | 30 to 300 |  | 
10 | [2H]C([2H])([2H])NC(=O)c1nnc(NC(=O)C2CC2)cc1Nc1ccc(F)c2c1N(C)Cc1nc(C)nn1-2 [Compound 105, 6-(cyclopropanecarboxamido)-4-((9-fluoro-2,5-dimethyl-4,5-dihydro-[1,2,4]triazolo[1,5-a]quinoxalin-6-yl)amino)-N-(methyl-d3)pyridazine-3-carboxamide] | > 1000 | > 1000 | < 30 | 30 to 300 |  | 
11 | [2H]C([2H])([2H])NC(=O)c1cnc(Nc2cc(C)nc(C)n2)cc1Nc1cc(F)cc2c1N(C)Cc1nc(C)nn1-2 [Compound 102, 6-((2,6-dimethylpyrimidin-4-yl)amino)-4-((8-fluoro-2,5-dimethyl-4,5-dihydro-[1,2,4]triazolo[1,5-a]quinoxalin-6-yl)amino)-N-(methyl-d3)nicotinamide] | 300 to 1000 | 30 to 300 | < 30 | < 30 |  | 
12 | [2H]C([2H])([2H])NC(=O)c1cnc(NC(=O)NC2CC2)cc1Nc1cccc2c1N(C)Cc1nn(C)nc1-2 [Compound 66, 6-(3-cyclopropylureido)-4-((2,5-dimethyl-4,5-dihydro-2H-[1,2,3]triazolo[4,5-c]quinolin-6-yl)amino)-N-(methyl-d3)nicotinamide] | > 1000 | > 1000 | < 30 | 30 to 300 |  | 
13 | [2H]C([2H])([2H])NC(=O)c1cnc(NC(=O)NC2CCC2)cc1Nc1cccc2c1N(C)Cc1nn(C)nc1-2 [Compound 64, 6-(3-cyclobutylureido)-4-((2,5-dimethyl-4,5-dihydro-2H-[1,2,3]triazolo[4,5-c]quinolin-6-yl)amino)-N-(methyl-d3)nicotinamide] | > 1000 | > 1000 | < 30 | 30 to 300 |  | 
14 | [2H]C([2H])([2H])NC(=O)c1nnc(NC(=O)[C@H]2CC2(F)F)cc1Nc1nccc2c1N(C)Cc1nn(C)nc1-2 [Compound 69, (R)-6-(2,2-difluorocyclopropane-1-carboxamido)-4-((2,5-dimethyl-4,5-dihydro-2H-[1,2,3]triazolo[4,5-c][1,7]naphthyridin-6-yl)amino)-N-(methyl-d3)pyridazine-3-carboxamide] | > 1000 |  | < 30 | 30 to 300 |  | > 1000
15 | [2H]C([2H])([2H])NC(=O)c1cnc(NC(=O)NC)cc1Nc1cccc2c1N(C)Cc1nn(C)nc1-2 [Compound 50, 4-((2,5-dimethyl-4,5-dihydro-2H-[1,2,3]triazolo[4,5-c]quinolin-6-yl)amino)-N-(methyl-d3)-6-(3-methylureido)nicotinamide] | > 1000 | > 1000 | < 30 | < 30 |  | 
16 | [2H]C([2H])([2H])NC(=O)c1cnc(NC(=O)C2CC2)cc1Nc1cccc2c1N(C)[C@@H](C)c1nn(C)nc1-2 (single isomer, unassigned) [Compound 57] | > 1000 | > 1000 | < 30 | < 30 |  | 
17 | [2H]C([2H])([2H])NC(=O)c1nnc(NC(=O)NC)cc1Nc1cccc2c1N(C)[C@@H](C)c1nn(C)nc1-2 (single isomer, unassigned) [Compound 62] | > 1000 | > 1000 | < 30 | < 30 |  | 
18 | [2H]C([2H])([2H])NC(=O)c1nnc(NC(=O)C2CC2)cc1Nc1cccc2c1N(C)C([2H])([2H])c1nn(C)nc1-2 [Compound 53, 6-(cyclopropanecarboxamido)-4-((2,5-dimethyl-4,5-dihydro-2H-[1,2,3]triazolo[4,5-c]quinolin-6-yl-4,4-d2)amino)-N-(methyl-d3)pyridazine-3-carboxamide] | 300 to 1000 | 30 to 300 | < 30 | < 30 |  | 
19 | [2H]C([2H])([2H])NC(=O)c1nnc(NC(=O)C2CC2)cc1Nc1nccc2c1N(C)Cc1nn(C([2H])([2H])[2H])nc1-2 [Compound 91, 6-(cyclopropanecarboxamido)-N-(methyl-d3)-4-((5-methyl-2-(methyl-d3)-4,5-dihydro-2H-[1,2,3]triazolo[4,5-c][1,7]naphthyridin-6-yl)amino)pyridazine-3-carboxamide] | > 1000 | 30 to 300 | < 30 | < 30 |  | 
20 | [2H]C([2H])([2H])NC(=O)c1cnc(NC(=O)NC)cc1Nc1cccc2c1N(C)[C@H](C)c1nn(C)nc1-2 (single isomer, unassigned) [Compound 56] | > 1000 | > 1000 | 30 to 300 | > 1000 |  | 
